Laboratory results taken from ChEMBL document CHEMBL1201862, “PubChem BioAssay data set” (2004).
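Five compound concentrations were applied to cells in 96-well plates for 48 hours; endpoints were derived by simple linear interpolation of the resulting dose-response curve. GI50: concentration for 50% inhibition of growth.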 The source made the active and inactive calls. No stated cut-off is given here; in the data, active = GI50 up to about 1.1 µM and inactive = higher.

Legend:
Test in all cases: growth of human tumour cells (NCI), 48 h
ACHN = tested on: ACHN
SF-268 = tested on: SF-268
SNB-75 = tested on: SNB-75
OVCAR-8 = tested on: OVCAR-8
M14 = tested on: M14
HCT-15 = tested on: HCT-15
SN12C = tested on: SN12C
UACC-62 = tested on: UACC-62
MDA-MB-435 = tested on: MDA-MB-435
T47D = tested on: T47D
A549 = tested on: A549
SNB-19 = tested on: SNB-19
SF-539 = tested on: SF-539
SW-620 = tested on: SW-620
MOLT-4 = tested on: MOLT-4
HCC 2998 = tested on: HCC 2998
BT-549 = tested on: BT-549
786-0 = tested on: 786-0
U-251 = tested on: U-251
SK-OV-3 = tested on: SK-OV-3
PC-3 = tested on: PC-3
SK-MEL-28 = tested on: SK-MEL-28
HOP-92 = tested on: HOP-92
MCF7 = tested on: MCF7
MDA-N = tested on: MDA-N
TK-10 = tested on: TK-10
CAKI-1 = tested on: CAKI-1
OVCAR-3 = tested on: OVCAR-3
HCT-116 = tested on: HCT-116
OVCAR-5 = tested on: OVCAR-5
SF-295 = tested on: SF-295
Malme-3M = tested on: Malme-3M
DU-145 = tested on: DU-145
NCI/ADR-RES = tested on: NCI/ADR-RES
MDA-MB-231 = tested on: MDA-MB-231
RPMI-8226 = tested on: RPMI-8226
NCI-H522 = tested on: NCI-H522
SR = tested on: SR
HOP-62 = tested on: HOP-62
IGROV-1 = tested on: IGROV-1
KM12 = tested on: KM12
SK-MEL-5 = tested on: SK-MEL-5
LOX IMVI = tested on: LOX IMVI
COLO 205 = tested on: COLO 205
NCI-H460 = tested on: NCI-H460
K562 = tested on: K562
UACC-257 = tested on: UACC-257
Hs-578T = tested on: Hs-578T
RXF 393 = tested on: RXF 393
CCRF-CEM = tested on: CCRF-CEM
OVCAR-4 = tested on: OVCAR-4
HT-29 = tested on: HT-29
HL-60 = tested on: HL-60
NCI-H23 = tested on: NCI-H23
SK-MEL-2 = tested on: SK-MEL-2
NCI-H226 = tested on: NCI-H226
A498 = tested on: A498
UO-31 = tested on: UO-31
EKVX = tested on: EKVX

Cc1ccc(C2SC(=N)Nc3c2c(C)nn3C(=O)c2ccncc2)cc1 (stereo not given) was tested, and the GI50 (ACHN) was > 10 µM (inactive), the GI50 (SF-268) was > 10 µM (inactive) and the GI50 (SNB-75) was > 10 µM (inactive). The GI50 (OVCAR-8) was > 10 µM (inactive), the GI50 (M14) was > 10 µM (inactive) and the GI50 (HCT-15) was over 10 µM. For the same compound, the GI50 (SN12C) was > 10 µM (inactive), the GI50 (UACC-62) was > 10 µM (inactive) and the GI50 (MDA-MB-435) was > 10 µM (inactive). For the same compound, the GI50 (T47D) was > 10 µM (inactive), the GI50 (A549) was > 10 µM (inactive) and the GI50 (SNB-19) was > 10 µM (inactive). The GI50 (SF-539) was > 10 µM (inactive), the GI50 (SW-620) was > 10 µM (inactive) and the GI50 (MOLT-4) was > 10 µM (inactive). The GI50 (HCC 2998) was > 10 µM (inactive), the GI50 (BT-549) was > 10 µM (inactive) and the GI50 (786-0) was > 10 µM (inactive). The GI50 (U-251) was > 10 µM (inactive), the GI50 (SK-OV-3) was > 10 µM (inactive) and the GI50 (PC-3) was > 10 µM (inactive). For the same compound, the GI50 (SK-MEL-28) was > 10 µM (inactive), the GI50 (HOP-92) was > 10 µM (inactive) and the GI50 (MCF7) was > 10 µM (inactive). For the same compound, the GI50 (MDA-N) was > 10 µM (inactive), the GI50 (TK-10) was > 10 µM (inactive) and the GI50 (CAKI-1) was > 10 µM (inactive). For the same compound, the GI50 (OVCAR-3) was > 10 µM (inactive), the GI50 (HCT-116) was > 10 µM (inactive) and the GI50 (OVCAR-5) was > 10 µM (inactive). For the same compound, the GI50 (SF-295) was > 10 µM (inactive), the GI50 (Malme-3M) was > 10 µM (inactive) and the GI50 (DU-145) was > 10 µM (inactive). The GI50 (NCI/ADR-RES) was > 10 µM (inactive), the GI50 (MDA-MB-231) was > 10 µM (inactive) and the GI50 (RPMI-8226) was > 10 µM (inactive). For the same compound, the GI50 (NCI-H522) was > 10 µM (inactive), the GI50 (SR) was > 10 µM (inactive) and the GI50 (HOP-62) was > 10 µM (inactive). For the same compound, the GI50 (IGROV-1) was > 10 µM (inactive), the GI50 (KM12) was > 10 µM (inactive) and the GI50 (SK-MEL-5) was > 10 µM (inactive). For the same compound, the GI50 (LOX IMVI) was > 10 µM (inactive), the GI50 (COLO 205) was > 10 µM (inactive) and the GI50 (NCI-H460) was > 10 µM (inactive). For the same compound, the GI50 (K562) was > 10 µM (inactive), the GI50 (UACC-257) was > 10 µM (inactive) and the GI50 (Hs-578T) was > 10 µM (inactive). For the same compound, the GI50 (RXF 393) was > 10 µM (inactive), the GI50 (CCRF-CEM) was > 10 µM (inactive) and the GI50 (OVCAR-4) was > 10 µM (inactive). For the same compound, the GI50 (HT-29) was > 10 µM (inactive), the GI50 (HL-60) was > 10 µM (inactive) and the GI50 (NCI-H23) was > 10 µM (inactive). The GI50 (SK-MEL-2) was > 10 µM (inactive) and the GI50 (NCI-H226) was > 10 µM (inactive).
With O=[N+]([O-])c1cc(Cl)ccc1Sc1ccccc1 the GI50 (ACHN) was > 100 µM (inactive), the GI50 (SF-268) was > 100 µM (inactive) and the GI50 (SNB-75) was 20.8 µM (inactive). For the same compound, the GI50 (OVCAR-8) was > 100 µM (inactive), the GI50 (M14) was > 100 µM (inactive) and the GI50 (HCT-15) was 72.3 µM. The GI50 (SN12C) was 77.4 µM (inactive), the GI50 (UACC-62) was > 100 µM (inactive) and the GI50 (MDA-MB-435) was > 100 µM (inactive). The GI50 (T47D) was 69.5 µM (inactive), the GI50 (A549) was > 100 µM (inactive) and the GI50 (SNB-19) was > 100 µM (inactive). The GI50 (SF-539) was > 100 µM (inactive), the GI50 (SW-620) was > 100 µM (inactive) and the GI50 (MOLT-4) was 56.1 µM (inactive). For the same compound, the GI50 (HCC 2998) was 87.9 µM (inactive), the GI50 (BT-549) was 81.5 µM (inactive) and the GI50 (786-0) was > 100 µM (inactive). The GI50 (U-251) was 5.89 µM (inactive), the GI50 (SK-OV-3) was > 100 µM (inactive) and the GI50 (A498) was > 100 µM (inactive). For the same compound, the GI50 (PC-3) was > 100 µM (inactive), the GI50 (UO-31) was 23.6 µM (inactive) and the GI50 (SK-MEL-28) was > 100 µM (inactive). The GI50 (HOP-92) was 42.2 µM (inactive), the GI50 (MCF7) was > 100 µM (inactive) and the GI50 (MDA-N) was 98.4 µM (inactive). For the same compound, the GI50 (TK-10) was > 100 µM (inactive), the GI50 (CAKI-1) was 93.8 µM (inactive) and the GI50 (OVCAR-3) was > 100 µM (inactive). The GI50 (HCT-116) was 34.3 µM (inactive), the GI50 (OVCAR-5) was > 100 µM (inactive) and the GI50 (SF-295) was > 100 µM (inactive). For the same compound, the GI50 (Malme-3M) was > 100 µM (inactive), the GI50 (DU-145) was > 100 µM (inactive) and the GI50 (NCI/ADR-RES) was > 100 µM (inactive). For the same compound, the GI50 (MDA-MB-231) was > 100 µM (inactive), the GI50 (RPMI-8226) was > 100 µM (inactive) and the GI50 (NCI-H522) was > 100 µM (inactive). The GI50 (HOP-62) was > 100 µM (inactive), the GI50 (IGROV-1) was > 100 µM (inactive) and the GI50 (KM12) was 98.6 µM (inactive). For the same compound, the GI50 (SK-MEL-5) was 75.2 µM (inactive), the GI50 (LOX IMVI) was > 100 µM (inactive) and the GI50 (COLO 205) was > 100 µM (inactive). The GI50 (NCI-H460) was 75 µM (inactive), the GI50 (K562) was > 100 µM (inactive) and the GI50 (UACC-257) was > 100 µM (inactive). The GI50 (Hs-578T) was > 100 µM (inactive), the GI50 (RXF 393) was 80.2 µM (inactive) and the GI50 (CCRF-CEM) was 89.9 µM (inactive). The GI50 (OVCAR-4) was > 100 µM (inactive), the GI50 (HT-29) was 46.8 µM (inactive) and the GI50 (HL-60) was 61.7 µM (inactive). The GI50 (NCI-H23) was > 100 µM (inactive), the GI50 (SK-MEL-2) was 44.8 µM (inactive) and the GI50 (EKVX) was > 100 µM (inactive). The GI50 (NCI-H226) was 34.8 µM (inactive).
For N#CCc1nc(C#N)c(N)o1, the GI50 (ACHN) was > 100 µM (inactive), the GI50 (SF-268) was > 100 µM (inactive) and the GI50 (OVCAR-8) was > 100 µM (inactive). The GI50 (M14) was > 100 µM (inactive), the GI50 (HCT-15) was over 100 µM and the GI50 (SN12C) was > 100 µM (inactive). The GI50 (UACC-62) was > 100 µM (inactive), the GI50 (MDA-MB-435) was > 100 µM (inactive) and the GI50 (T47D) was > 100 µM (inactive). The GI50 (A549) was > 100 µM (inactive), the GI50 (SF-539) was > 100 µM (inactive) and the GI50 (SW-620) was > 100 µM (inactive). For the same compound, the GI50 (MOLT-4) was > 100 µM (inactive), the GI50 (HCC 2998) was > 100 µM (inactive) and the GI50 (BT-549) was > 100 µM (inactive). The GI50 (786-0) was > 100 µM (inactive), the GI50 (U-251) was > 100 µM (inactive) and the GI50 (SK-OV-3) was > 100 µM (inactive). The GI50 (A498) was > 100 µM (inactive), the GI50 (PC-3) was > 100 µM (inactive) and the GI50 (UO-31) was > 100 µM (inactive). For the same compound, the GI50 (SK-MEL-28) was > 100 µM (inactive), the GI50 (HOP-92) was > 100 µM (inactive) and the GI50 (MCF7) was > 100 µM (inactive). For the same compound, the GI50 (MDA-N) was > 100 µM (inactive), the GI50 (TK-10) was > 100 µM (inactive) and the GI50 (CAKI-1) was > 100 µM (inactive). The GI50 (OVCAR-3) was > 100 µM (inactive), the GI50 (HCT-116) was > 100 µM (inactive) and the GI50 (OVCAR-5) was > 100 µM (inactive). The GI50 (SF-295) was > 100 µM (inactive), the GI50 (Malme-3M) was < 0.01 µM (active) and the GI50 (DU-145) was > 100 µM (inactive). The GI50 (NCI/ADR-RES) was > 100 µM (inactive), the GI50 (MDA-MB-231) was > 100 µM (inactive) and the GI50 (NCI-H522) was > 100 µM (inactive). For the same compound, the GI50 (SR) was > 100 µM (inactive), the GI50 (HOP-62) was > 100 µM (inactive) and the GI50 (IGROV-1) was > 100 µM (inactive). The GI50 (KM12) was > 100 µM (inactive), the GI50 (COLO 205) was > 100 µM (inactive) and the GI50 (NCI-H460) was > 100 µM (inactive). The GI50 (UACC-257) was > 100 µM (inactive), the GI50 (Hs-578T) was > 100 µM (inactive) and the GI50 (RXF 393) was > 100 µM (inactive). The GI50 (CCRF-CEM) was > 100 µM (inactive), the GI50 (OVCAR-4) was > 100 µM (inactive) and the GI50 (HT-29) was > 100 µM (inactive). For the same compound, the GI50 (NCI-H23) was > 100 µM (inactive), the GI50 (SK-MEL-2) was > 100 µM (inactive) and the GI50 (NCI-H226) was > 100 µM (inactive).
